Laboratory results: patent publication US20230085307A1, “PYRIDAZINONE COMPOUND AND HERBICIDE” (NISSAN CHEMICAL CORPORATION, priority 2019, published 2023)

Legend:
Chinese sprangletop = assay: Test Example 3: herbicidal effect by foliage application, Wagner pot (Table 18, symbol D); type: in vivo, chinese sprangletop (Leptochloa chinensis)
Outline: (§1)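 Plants were sown in alluvial soil held under 0.1–0.5 cm standing water and grown 14 days in a greenhouse at 25–30 °C. An emulsifiable formulation, water-diluted to the set dose, was then sprayed onto the foliage, and effects were scored three weeks later using previously defined criteria.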

redroot pigweed = assay: Test Example 4: herbicidal effect by soil treatment (Table 19, symbol N); type: in vivo, redroot pigweed (Amaranthus retroflexus)
Outline: (§2)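 In this soil treatment, the formulated compound reached the seeds only through the soil: seeds were buried about 1.5 cm deep in sterilized diluvial soil, then the diluted emulsion was sprayed over the surface. After three weeks at 25° C. to 30° C. in a greenhouse, effects were graded on criteria from an earlier test.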

false cleavers [1] = assay: Test Example 4: herbicidal effect by soil treatment (Table 19, symbol Q); type: in vivo, false cleavers (Galium spurium)
Outline: as §2

Japanese bulrush = assay: Test Example 1: herbicidal activity, application before weed generation under submerged conditions (Table 16, symbol B); type: in vivo, Japanese bulrush (Schoenoplectus juncoides)
Outline: (§3)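 Alluvial soil was flooded to 4 cm depth, weed seeds were sown mixed and 2.5-leaf rice seedlings were transplanted. On sowing day, the compound's emulsion, diluted in water to a set dose, was applied to the water surface. Plants grew at 25–30 °C and were scored 0–5 after three weeks.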

windgrass = assay: Test Example 5: herbicidal effect by foliage application, plastic box (Table 20, symbol L); type: in vivo, windgrass (Apera spica-venti); details: foliage application, three weeks after application
Outline: (§4)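 Plants were sown into sterilized diluvial soil under about 1.5 cm cover and kept in a greenhouse at 25° C. to 30° C. Fourteen days on, foliage received an even spray of the diluted emulsion. Herbicidal or crop effect was judged three weeks afterwards.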

barnyard grass [2] = assay: Test Example 3: herbicidal effect by foliage application, Wagner pot (Table 18, symbol H); type: in vivo, barnyard grass (Echinochloa crus-galli)
Outline: as §1

persian speedwell = assay: Test Example 5: herbicidal effect by foliage application, plastic box (Table 20, symbol R); type: in vivo, Persian speedwell (Veronica persica); details: foliage application, three weeks after application
Outline: as §4

false cleavers [3] = assay: Test Example 5: herbicidal effect by foliage application, plastic box (Table 20, symbol Q); type: in vivo, false cleavers (Galium spurium); details: foliage application, three weeks after application
Outline: as §4

southern crabgrass [4] = assay: Test Example 5: herbicidal effect by foliage application, plastic box (Table 20, symbol F); type: in vivo, southern crabgrass (Digitaria ciliaris); details: foliage application, three weeks after application
Outline: as §4

blackgrass [5] = assay: Test Example 4: herbicidal effect by soil treatment (Table 19, symbol J); type: in vivo, blackgrass (Alopecurus myosuroides)
Outline: as §2

blackgrass [6] = assay: Test Example 5: herbicidal effect by foliage application, plastic box (Table 20, symbol J); type: in vivo, blackgrass (Alopecurus myosuroides); details: foliage application, three weeks after application
Outline: as §4

wild oat [7] = assay: Test Example 4: herbicidal effect by soil treatment (Table 19, symbol I); type: in vivo, wild oat (Avena fatua)
Outline: as §2

Italian ryegrass = assay: Test Example 4: herbicidal effect by soil treatment (Table 19, symbol K); type: in vivo, Italian ryegrass (Lolium multiflorum)
Outline: as §2

oval-leafed pondweed = assay: Test Example 1: herbicidal activity, application before weed generation under submerged conditions (Table 16, symbol C); type: in vivo, oval-leafed pondweed (Monochoria vaginalis)
Outline: as §3

lambsquarters = assay: Test Example 5: herbicidal effect by foliage application, plastic box (Table 20, symbol O); type: in vivo, lambsquarters (Chenopodium album); details: foliage application, three weeks after application
Outline: as §4

wild oat [8] = assay: Test Example 5: herbicidal effect by foliage application, plastic box (Table 20, symbol I); type: in vivo, wild oat (Avena fatua); details: foliage application, three weeks after application
Outline: as §4

barnyard grass [9] = assay: Test Example 5: herbicidal effect by foliage application, plastic box (Table 20, symbol H); type: in vivo, barnyard grass (Echinochloa crus-galli); details: foliage application, three weeks after application
Outline: as §4

southern crabgrass [10] = assay: Test Example 4: herbicidal effect by soil treatment (Table 19, symbol F); type: in vivo, southern crabgrass (Digitaria ciliaris)
Outline: as §2

[11] = amount of applied herbicide 224 g/ha
[12] = amount of applied herbicide 304 g/ha

SMILES: CCCC(=O)Oc1c(C)nn(C)c(=O)c1-c1c(-c2ccccc2OC)sc2cc(C)ccc12 [3-050]
- herbicidal effect on Chinese sprangletop (D) (Chinese sprangletop; 224 g/ha): 3 (Herbicidal rate of 40% or more and less than 70%)
- N: redroot pigweed, herbicidal effect grade (redroot pigweed; [11]): 0 (Herbicidal rate of 5% or less (almost no effect))
- Q: false cleavers, herbicidal effect grade (false cleavers [1]; [11]): 0 (Herbicidal rate of 5% or less (almost no effect))
- Herbicidal effect, B: Japanese bulrush (Japanese bulrush; [11]): 0 (Herbicidal rate of 5% or less (almost no effect))
- L: windgrass, herbicidal effect grade (windgrass; 224 g/ha): 4 (Herbicidal rate of 70% or more and less than 90%)
- herbicidal effect on barnyard grass (H) (barnyard grass [2]; 224 g/ha): 4 (Herbicidal rate of 70% or more and less than 90%)
- R: persian speedwell, herbicidal effect grade (persian speedwell; 224 g/ha): 5 (Herbicidal rate of 90% or more (almost completely withered))
- Q: false cleavers, herbicidal effect grade (false cleavers [3]; 224 g/ha): 4 (Herbicidal rate of 70% or more and less than 90%)
- F: southern crabgrass, herbicidal effect grade (southern crabgrass [4]; 224 g/ha): 4 (Herbicidal rate of 70% or more and less than 90%)
- J: blackgrass, herbicidal effect grade (blackgrass [5]; [11]): 0 (Herbicidal rate of 5% or less (almost no effect))
- J: blackgrass, herbicidal effect grade (blackgrass [6]; 224 g/ha): 4 (Herbicidal rate of 70% or more and less than 90%)
- I: wild oat, herbicidal effect grade (wild oat [7]; [11]): 0 (Herbicidal rate of 5% or less (almost no effect))
- K: Italian ryegrass, herbicidal effect grade (Italian ryegrass; [11]): 1 (Herbicidal rate of 5% or more and less than 20%)
- Herbicidal effect, C: oval-leafed pondweed (oval-leafed pondweed; [11]): 1 (Herbicidal rate of 5% or more and less than 20%)
- O: lambsquarters, herbicidal effect grade (lambsquarters; 224 g/ha): 0 (Herbicidal rate of 5% or less (almost no effect))
- I: wild oat, herbicidal effect grade (wild oat [8]; 224 g/ha): 4 (Herbicidal rate of 70% or more and less than 90%)
- H: barnyard grass, herbicidal effect grade (barnyard grass [9]; 224 g/ha): 4 (Herbicidal rate of 70% or more and less than 90%)
- F: southern crabgrass, herbicidal effect grade (southern crabgrass [10]; [11]): 0 (Herbicidal rate of 5% or less (almost no effect))

SMILES: CCCC(=O)Oc1c(C)nn(C)c(=O)c1-c1c(-c2ccccc2OCC)sc2cc(C)ccc12 [3-054]
- herbicidal effect on Chinese sprangletop (D) (Chinese sprangletop; 304 g/ha): 3 (Herbicidal rate of 40% or more and less than 70%)
- N: redroot pigweed, herbicidal effect grade (redroot pigweed; [12]): 1 (Herbicidal rate of 5% or more and less than 20%)
- Q: false cleavers, herbicidal effect grade (false cleavers [1]; [12]): 2 (Herbicidal rate of 20% or more and less than 40%)
- Herbicidal effect, B: Japanese bulrush (Japanese bulrush; [12]): 5 (Herbicidal rate of 90% or more (almost completely withered))
- L: windgrass, herbicidal effect grade (windgrass; 304 g/ha): 4 (Herbicidal rate of 70% or more and less than 90%)
- herbicidal effect on barnyard grass (H) (barnyard grass [2]; 304 g/ha): 5 (Herbicidal rate of 90% or more (almost completely withered))
- R: persian speedwell, herbicidal effect grade (persian speedwell; 304 g/ha): 5 (Herbicidal rate of 90% or more (almost completely withered))
- Q: false cleavers, herbicidal effect grade (false cleavers [3]; 304 g/ha): 5 (Herbicidal rate of 90% or more (almost completely withered))
- F: southern crabgrass, herbicidal effect grade (southern crabgrass [4]; 304 g/ha): 5 (Herbicidal rate of 90% or more (almost completely withered))
- J: blackgrass, herbicidal effect grade (blackgrass [5]; [12]): 3 (Herbicidal rate of 40% or more and less than 70%)
- J: blackgrass, herbicidal effect grade (blackgrass [6]; 304 g/ha): 4 (Herbicidal rate of 70% or more and less than 90%)
- I: wild oat, herbicidal effect grade (wild oat [7]; [12]): 1 (Herbicidal rate of 5% or more and less than 20%)
- K: Italian ryegrass, herbicidal effect grade (Italian ryegrass; [12]): 3 (Herbicidal rate of 40% or more and less than 70%)
- Herbicidal effect, C: oval-leafed pondweed (oval-leafed pondweed; [12]): 4 (Herbicidal rate of 70% or more and less than 90%)
- O: lambsquarters, herbicidal effect grade (lambsquarters; 304 g/ha): 4 (Herbicidal rate of 70% or more and less than 90%)
- I: wild oat, herbicidal effect grade (wild oat [8]; 304 g/ha): 5 (Herbicidal rate of 90% or more (almost completely withered))
- H: barnyard grass, herbicidal effect grade (barnyard grass [9]; 304 g/ha): 4 (Herbicidal rate of 70% or more and less than 90%)
- F: southern crabgrass, herbicidal effect grade (southern crabgrass [10]; [12]): 4 (Herbicidal rate of 70% or more and less than 90%)
